From the Biogen ADME set (Fang et al. 2023) come the findings set out here.

In brackets after ≈: the same amount, converted by molar mass.

For the data set the following is noted: for aqueous solubility: pH 6.8.

By aqueous solubility is commonly meant the concentration that dissolves in the medium under given conditions. As to `COc1ccc(CN(C)C(=O)C2(C#N)CCC2)cc1`, the aqueous solubility turned out to be 56.6 µg/mL (≈ 219 µM).
Regarding `O=S(=O)(c1cccnc1)N1CCC2(Cc3ccccc3C2)C1`, the MDR1-MDCK efflux ratio came to 0.627; the intrinsic clearance, human liver microsomes was determined as 91.2 mL/min/kg; the intrinsic clearance, rat liver microsomes stood at 5070 mL/min/kg.
On to `Cn1c(=O)n(C)c2cc(CN3CCC(c4ccc(Cc5ccccc5F)cn4)CC3)ccc21`, for which the MDR1-MDCK efflux ratio amounted to 6.24; the intrinsic clearance, human liver microsomes is 84.8 mL/min/kg; the intrinsic clearance, rat liver microsomes came out at 108 mL/min/kg; the aqueous solubility was found to be 56.6 µg/mL (≈ 127 µM).
The like results for `Cc1nc(O)cc(C2CN(C3CCCCC3)C2)n1` were, in that order, 16.5, at most 4.74 mL/min/kg, at most 10.7 mL/min/kg and 41.4 µg/mL (≈ 167 µM).
Turning to `CN1CCc2nc(NC(=O)c3cncn3-c3ccccc3)sc2C1`, the MDR1-MDCK efflux ratio was found to be 20.3; the intrinsic clearance, human liver microsomes was 5.11 mL/min/kg; the intrinsic clearance, rat liver microsomes came to 63.6 mL/min/kg; the aqueous solubility was 43.4 µg/mL (≈ 128 µM).
On to `CCOc1ccc(C(=O)Cn2c(=O)n(-c3ccc(F)cc3)c3nc(C)nc(C(N)=O)c32)cc1`, for which the MDR1-MDCK efflux ratio amounted to 0.926 and the aqueous solubility was 0.39 µg/mL (≈ 0.868 µM).
`CCOc1cc2c(cc1CCC(=O)N1CCC(Cc3ncncc3C(N)=O)CC1)CCC2` displayed an intrinsic clearance, human liver microsomes of 564 mL/min/kg; an intrinsic clearance, rat liver microsomes of 1650 mL/min/kg; an aqueous solubility of 75.2 µg/mL (≈ 172 µM).
In the case of `COc1ccc(-c2ccccc2)c(NS(=O)(=O)c2cc(O)c(Cl)cc2Cl)c1`, the aqueous solubility amounted to 27.6 µg/mL (≈ 65 µM).
The compound `Cc1ccc(F)cc1NCc1csc(-c2cnn(C)c2)n1` had an intrinsic clearance, human liver microsomes of 40.2 mL/min/kg and an intrinsic clearance, rat liver microsomes of 402 mL/min/kg.
In the case of `Cc1cc(NC(=O)CN(C)CCOc2ccccc2)on1`, the MDR1-MDCK efflux ratio worked out at 0.516; the intrinsic clearance, human liver microsomes was found to be 166 mL/min/kg; the intrinsic clearance, rat liver microsomes came out at 622 mL/min/kg.
For `Cc1c(C(=O)NCCc2cc3nc(-c4ccco4)ccn3n2)cnn1C`, the intrinsic clearance, human liver microsomes worked out at 29 mL/min/kg and the intrinsic clearance, rat liver microsomes is 173 mL/min/kg.
`COc1ccc(CNc2ncc(-c3ccc4c(c3)OCO4)n2C)c(OC)c1`: the MDR1-MDCK efflux ratio came out at 1.48; the intrinsic clearance, human liver microsomes worked out at 202 mL/min/kg; the intrinsic clearance, rat liver microsomes amounted to 1590 mL/min/kg; the aqueous solubility was determined as 42.5 µg/mL (≈ 116 µM).
Take `CC(C)Oc1cccc(C(C)NC(=O)c2ccnc(-n3cncn3)c2)c1` (stereo unspecified): the MDR1-MDCK efflux ratio turned out to be 1.81; the intrinsic clearance, human liver microsomes is 70.8 mL/min/kg; the intrinsic clearance, rat liver microsomes came out at 258 mL/min/kg.
`NCc1ccc(Oc2ccccc2)nc1` returned an intrinsic clearance, human liver microsomes of 20.7 mL/min/kg; an intrinsic clearance, rat liver microsomes of 50.5 mL/min/kg; an aqueous solubility of 22 µg/mL (≈ 110 µM).
Regarding `CC(C)(C)Sc1c(CC(C)(C)C(=O)O)n(Cc2ccc(Cl)cc2)c2ccc(OCc3ccc4ccccc4n3)cc12`, the MDR1-MDCK efflux ratio is 2.37; the intrinsic clearance, human liver microsomes turned out to be 28.7 mL/min/kg; the intrinsic clearance, rat liver microsomes turned out to be 142 mL/min/kg; the aqueous solubility amounted to 6.1 µg/mL (≈ 10.4 µM).
Regarding `CS(=O)(=O)c1ccc(-c2nnc(/C=C/c3nnc(-c4ccc(C#N)cc4)o3)n2-c2ccccc2Cl)nc1`, the MDR1-MDCK efflux ratio came out at 38.3 and the aqueous solubility was 0.9 µg/mL (≈ 1.7 µM).
Turning to `CCCc1nc(N2CCc3ccccc3C2)ncc1C(=O)O`, the MDR1-MDCK efflux ratio came out at 0.725; the intrinsic clearance, human liver microsomes is at most 4.74 mL/min/kg; the intrinsic clearance, rat liver microsomes turned out to be 39.3 mL/min/kg; the aqueous solubility is 51.4 µg/mL (≈ 173 µM).
Turning to `Cc1cc(C)cc(OCCN(C)C(=O)NCCN2CCCCC2=O)c1`, the MDR1-MDCK efflux ratio was 29.2; the intrinsic clearance, human liver microsomes was determined as 150 mL/min/kg; the intrinsic clearance, rat liver microsomes amounted to 1300 mL/min/kg.
With `Cc1ccc(-n2nc(NCc3cnn(C)c3)cc2C)cc1`, the MDR1-MDCK efflux ratio was 0.727; the intrinsic clearance, human liver microsomes was at most 4.74 mL/min/kg; the intrinsic clearance, rat liver microsomes came out at 70.4 mL/min/kg.
Regarding `CCCCCCCC/C(=C\CCCCCCCC(=O)O)[N+](=O)[O-]`, the intrinsic clearance, human liver microsomes came out at 42.9 mL/min/kg; the intrinsic clearance, rat liver microsomes stood at 84.9 mL/min/kg; the aqueous solubility worked out at 12.7 µg/mL (≈ 38.8 µM).
Turning to `OCCN1CCC(c2ccncn2)CC1`, the MDR1-MDCK efflux ratio was 0.615; the intrinsic clearance, human liver microsomes was at most 4.74 mL/min/kg; the intrinsic clearance, rat liver microsomes came out at 35.2 mL/min/kg; the aqueous solubility is 37.4 µg/mL (≈ 181 µM).
The like results for `Cc1cccc(OC2CN(C(=O)Cn3c(C)nn(-c4ccccc4)c3=O)C2)c1` were, in that order, 0.993, 13.5 mL/min/kg, 103 mL/min/kg and 5.11 µg/mL (≈ 13.5 µM).
In the case of `CC(C)C(=O)N1CC(Cc2nccc3ccn(C)c23)C1`, the MDR1-MDCK efflux ratio worked out at 7.28; the intrinsic clearance, human liver microsomes was at most 4.74 mL/min/kg; the intrinsic clearance, rat liver microsomes came out at 51.9 mL/min/kg; the aqueous solubility turned out to be 62.7 µg/mL (≈ 231 µM).
`Oc1ccccc1NCc1ccccn1`: the intrinsic clearance, human liver microsomes came out at 24.9 mL/min/kg; the intrinsic clearance, rat liver microsomes worked out at 600 mL/min/kg; the aqueous solubility stood at 44.1 µg/mL (≈ 220 µM).
In turn, `Cn1cc(-c2nc(C(=O)Nc3ccc4c(c3)OCCCO4)cs2)cn1` came in with an intrinsic clearance, human liver microsomes of 8.94 mL/min/kg; an intrinsic clearance, rat liver microsomes of 226 mL/min/kg; an aqueous solubility of 34 µg/mL (≈ 95.4 µM).
Turning to `Clc1ccc(NCc2ccoc2)nn1`, the MDR1-MDCK efflux ratio came out at 0.594; the intrinsic clearance, human liver microsomes is at most 4.74 mL/min/kg; the intrinsic clearance, rat liver microsomes is at most 10.7 mL/min/kg; the aqueous solubility is 21.5 µg/mL (≈ 102 µM).
Regarding `NCCOc1cccc(CC(=O)N2CCC(F)(F)CC2)c1`, the MDR1-MDCK efflux ratio stood at 19.4; the intrinsic clearance, human liver microsomes is at most 4.74 mL/min/kg; the intrinsic clearance, rat liver microsomes was at most 10.7 mL/min/kg.
Consider `O=C(NCc1ccc(F)cc1)c1ccc(-n2ccnc2)nc1`, for which the MDR1-MDCK efflux ratio is 1.04; the intrinsic clearance, human liver microsomes is at most 4.74 mL/min/kg; the intrinsic clearance, rat liver microsomes worked out at 30 mL/min/kg; the aqueous solubility was found to be 70.8 µg/mL (≈ 239 µM).
Regarding `CNC(=O)c1cccc(Cn2nnc(-c3ccccc3Cl)n2)c1`, the MDR1-MDCK efflux ratio was 9.33; the intrinsic clearance, human liver microsomes stood at 16.5 mL/min/kg; the intrinsic clearance, rat liver microsomes was 775 mL/min/kg; the aqueous solubility was 22.9 µg/mL (≈ 70 µM).
Consider `COc1ccnc(N2CC(O)(C3CC3)C2)n1`, for which the MDR1-MDCK efflux ratio was determined as 0.711; the intrinsic clearance, human liver microsomes is at most 4.74 mL/min/kg; the intrinsic clearance, rat liver microsomes came out at 25.8 mL/min/kg.
For `CC(C)[C@H](CO)Nc1nc(Nc2cc(N)cc(Cl)c2)c2ncn(C(C)C)c2n1`, the MDR1-MDCK efflux ratio was 16.9; the fraction unbound, human plasma is 0.00867; the fraction unbound, rat plasma was found to be 0.00796.
In turn, `CCONC(=O)c1cnn(-c2cccc(Cl)c2)c1` displayed an intrinsic clearance, human liver microsomes of 34.9 mL/min/kg; an intrinsic clearance, rat liver microsomes of 446 mL/min/kg; an aqueous solubility of 41 µg/mL (≈ 154 µM).
`CCOC(C)C(=O)N1CCC(n2c(=O)[nH]c3ccccc32)CC1` (stereo unspecified) had an intrinsic clearance, human liver microsomes of at most 4.74 mL/min/kg; an intrinsic clearance, rat liver microsomes of 75.8 mL/min/kg; an aqueous solubility of 64.7 µg/mL (≈ 204 µM).
In turn, `O=c1[nH]c(=O)n([C@H]2C[C@H](O)[C@@H](CO)O2)cc1C(F)(F)F` registered an intrinsic clearance, human liver microsomes of 41.9 mL/min/kg and an intrinsic clearance, rat liver microsomes of at most 10.7 mL/min/kg.
With `O=C(CN1CCCN(c2ccc(C(F)(F)F)cn2)CC1)Nc1cccc(F)c1`, the MDR1-MDCK efflux ratio turned out to be 0.796; the intrinsic clearance, human liver microsomes came out at 120 mL/min/kg; the intrinsic clearance, rat liver microsomes was 967 mL/min/kg; the aqueous solubility came out at 30.5 µg/mL (≈ 76.9 µM).
The like results for `Cn1c(=O)c2c(nc3n2CCN3Cc2c(F)cccc2Cl)n(C)c1=O` were, in that order, 1.27, 11.9 mL/min/kg, 146 mL/min/kg and 5.17 µg/mL (≈ 14.2 µM).
For `Cn1nc(C2CCNCC2)c2cccnc21` the same measures were 6.86, at most 4.74 mL/min/kg, 36.3 mL/min/kg and 53.4 µg/mL (≈ 247 µM).
Consider `Cc1nc(Nc2ccc(F)cc2)nc2c1ncn2-c1ccc(F)cc1`, for which the MDR1-MDCK efflux ratio is 0.388 and the aqueous solubility is 0.14 µg/mL (≈ 0.415 µM).
On to `COCC(=O)N(CC1CCCO1)c1nc2c(s1)CCc1c-2cnn1C` (stereo unspecified), for which the intrinsic clearance, human liver microsomes is 6.3 mL/min/kg and the intrinsic clearance, rat liver microsomes turned out to be 14.2 mL/min/kg.
As to `Cc1ccc2oc(C(=O)N3CC[C@H](O)[C@@H](N4CCOCC4)CC3)cc2c1`, the MDR1-MDCK efflux ratio came to 2.46; the intrinsic clearance, human liver microsomes was found to be 16.6 mL/min/kg; the intrinsic clearance, rat liver microsomes amounted to 1260 mL/min/kg.
Take `O=C(NNc1ccccc1)c1ccncc1`: the MDR1-MDCK efflux ratio amounted to 0.738.
For the compound `Cc1ccc2cccc(OCC(=O)N(C)c3ccccc3)c2n1`, the MDR1-MDCK efflux ratio came out at 1.52; the intrinsic clearance, human liver microsomes came out at 126 mL/min/kg; the intrinsic clearance, rat liver microsomes was found to be 482 mL/min/kg; the aqueous solubility turned out to be 55 µg/mL (≈ 179 µM).
For `CC(C)(O)C(=O)N1CCC(c2ccc3c(NCc4ccccc4F)n[nH]c3n2)CC1` the same measures were 15.4, 8.35 mL/min/kg, 69.8 mL/min/kg and 29.2 µg/mL (≈ 70.9 µM).
Regarding `CCc1nc2cc(-c3c(OC)cccc3OC)ccc2o1`, the MDR1-MDCK efflux ratio was determined as 0.46; the intrinsic clearance, human liver microsomes turned out to be 49.6 mL/min/kg; the intrinsic clearance, rat liver microsomes stood at 3760 mL/min/kg; the aqueous solubility was 19 µg/mL (≈ 67.1 µM).
Take `C[C@@H]1CN(C(=O)CC(c2ccccc2)c2ccccc2)C[C@H](C)O1`: the MDR1-MDCK efflux ratio was found to be 1.31; the fraction unbound, human plasma is 0.154; the fraction unbound, rat plasma was 0.0523; the intrinsic clearance, human liver microsomes turned out to be 36.4 mL/min/kg. The compound also displayed an intrinsic clearance, rat liver microsomes of 1900 mL/min/kg and an aqueous solubility of 52.3 µg/mL (≈ 162 µM).
As for `O=C(C1CCCN(Cc2cc3c(cc2O)OCO3)C1)N1CCOCC1` (stereo unspecified), the MDR1-MDCK efflux ratio was 1.94; the intrinsic clearance, human liver microsomes worked out at 5.4 mL/min/kg; the intrinsic clearance, rat liver microsomes is 52.6 mL/min/kg; the aqueous solubility came to 55.8 µg/mL (≈ 160 µM).
Consider `Cc1cccc(/C=N/Nc2cc(N3CCOCC3)nc(OCCc3ccccn3)n2)c1`, for which the MDR1-MDCK efflux ratio was 0.917; the fraction unbound, human plasma amounted to 0.00283; the fraction unbound, rat plasma came out at 0.0053; the intrinsic clearance, human liver microsomes came out at 130 mL/min/kg.
